Data on eleven compounds can be found in patent US20220289698A1, “INHIBITORS OF HUMAN ATGL” (Karl-Franzens-Universität Graz, priority 2019, published 2022).

Read-outs that look alike come from different tables or passages of the source.

For one series, the target named is T1, human ATGL (Homo sapiens, UniProt Q96AD5).
T1 construct: made in house; host or cells: Expi cells (lysate, not purified)
T1 sequence (Q96AD5 1-504): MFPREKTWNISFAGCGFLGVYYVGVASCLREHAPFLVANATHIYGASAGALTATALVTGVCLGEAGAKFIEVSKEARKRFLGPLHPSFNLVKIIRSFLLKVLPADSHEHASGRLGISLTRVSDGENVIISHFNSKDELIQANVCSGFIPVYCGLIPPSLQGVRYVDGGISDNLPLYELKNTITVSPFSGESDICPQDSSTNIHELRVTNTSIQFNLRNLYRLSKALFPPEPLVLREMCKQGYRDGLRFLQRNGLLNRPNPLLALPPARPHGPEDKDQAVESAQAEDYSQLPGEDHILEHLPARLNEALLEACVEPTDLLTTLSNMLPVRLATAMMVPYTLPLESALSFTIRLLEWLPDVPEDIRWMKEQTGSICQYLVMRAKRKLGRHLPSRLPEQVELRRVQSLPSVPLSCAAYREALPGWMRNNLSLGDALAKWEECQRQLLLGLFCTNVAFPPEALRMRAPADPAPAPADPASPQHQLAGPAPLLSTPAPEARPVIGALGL
Briefly: Ki determination, human ATGL lysates with increasing substrate concentrations. The series is classed as biochemical. To be noted: non-linear regression. As for the experimental part: For determination of Ki values, lysates from Expi cells overexpressing human ATGL were incubated with recombinant purified ATGL co-activator CGI-58 and ATGL inhibitors at a single concentration dependent on the previously determined IC50. Increasing concentrations of substrate containing radiolabeled triolein were added and liberated FA were extracted and quantified by liquid scintillation. Inhibitors were dissolved in DMSO which was used as control. Ki was determined via non-linear regression analysis. Samples were measured in triplicates.

In series [1] the test system is differentiated hMADS adipocytes. Briefly: Isoproterenol-stimulated lipolysis in differentiated hMADS adipocytes. The series is classed as cell-based. The note with it: Homo sapiens, Adipocyte, 2 h pretreatment, 1 μM isoproterenol 1 h. As for the experimental part: Human differentiated hMADS adipocytes were pretreated with DMSO or ATGL inhibitors for 2 h. Subsequently, lipolysis was stimulated with 1 μM Isoproterenol for 1 h and fatty acid release was determined from media via NEFA Reagent (Wako Diagnostics). Samples were measured in triplicates.
Human differentiated hMADS adipocytes were pretreated with DMSO or ATGL inhibitors for 2 h. Subsequently, lipolysis was stimulated with 1 μM Isoproterenol for 1 h and glycerol release was determined from media via Free glycerol reagent (Sigma Aldrich). Samples were measured in triplicates.

The next series relates to HepG2 cells. Briefly: Toxicity screening (LDH) in HepG2 cells. Format: cell-based, human. The note with it: 24 h treatment, LDH release. The protocol: HepG2 cells were seeded in 96 well plates and at 50% confluency treated with DMSO (0.5% final conc.) or ATGL Inhibitors for 24 h in DMEM+P/S+3% heat inactivated FCS (3 h at 62° C.). Subsequently, LDH activity of 50 μl medium was determined via the Roche LDH Kit. Samples measured in triplicates.

The subject of another series is AML-12 cells. Briefly: Toxicity screening (LDH) in AML-12 cells. Format: cell-based, mouse. To be noted: 24 h treatment, LDH release. As for the experimental part: AML-12 cells were seeded in 96 well plates and at 80% confluency treated with DMSO (0.5% final conc.) or ATGL Inhibitors for 24 h in DMEM+P/S+3% heat inactivated FCS (3 h at 62° C.). Subsequently, medium was centrifuged at 300 g for 3 min, and LDH activity of 50 μl supernatant was determined via the Roche LDH Kit. Samples measured in triplicates.

Series [2] deals with differentiated 3T3-L1 adipocytes. The series can be described thus: Isoproterenol-stimulated lipolysis in differentiated 3T3-L1 adipocytes. The series is classed as cell-based. The note with it: Mus musculus, 2 h pretreatment. As for the experimental part:
Mouse differentiated 3T3-L1 adipocytes were pretreated with DMSO or ATGL inhibitors for 2 h. Subsequently, lipolysis was stimulated with 1 μM Isoproterenol for 1 h and fatty acid release was determined from media via NEFA Reagent (Wako Diagnostics). Samples were measured in triplicates.
Mouse differentiated 3T3-L1 adipocytes were pretreated with DMSO or ATGL inhibitors for 2 h. Subsequently, lipolysis was stimulated with 1 μM Isoproterenol for […] and glycerol release was determined from media via Free glycerol reagent (Sigma Aldrich). Samples were measured in triplicates.

Where [3] appears, read: 1 μM isoproterenol 1 h, fatty acid release, read-out: IC50 3T3 FA release.
Where [4] appears, read: 1 μM isoproterenol, glycerol release, read-out: IC50 3T3 glycerol release.

With `CCOc1ccc(-c2cc(OC)cc(C(=O)OC(C)C)n2)cc1` [Example 35], the melting point lay in the range of 79 to 81 °C. For the same compound, the affinity at human ATGL corresponds to a Ki of 0.5 µM.
At human ATGL, `CCOc1ccc(-c2nc(C(=O)OCc3cccs3)cs2)cc1` [Example 152, Thiophen-2-ylmethyl 2-(4-ethoxyphenyl)thiazole-4-carboxylate] yielded a Ki of 8.2 µM. For the same compound, the IC50 came to 12 µM in series [1] (fatty acid release, read-out: IC50 hMADS FA release) and 10 µM in series [1] (glycerol release, read-out: IC50 hMADS glycerol release). In the series on HepG2 cells, the “Tox HepG2 (LDH) seen from” value is 200 µM.
`CCOc1ccc(-c2cccc(C(=O)OCc3cccs3)n2)cc1` [Example 189, Thiophen-2-ylmethyl 6-(4-ethoxyphenyl)picolinate] showed a melting point of 93 to 94 °C. In addition, the “Tox AML-12 (LDH) seen from” value with AML-12 cells turned out to be 200 µM.
Take `CCOc1ccc(-c2cccc(C(=O)OCc3ccco3)n2)cc1` [Example 190, Furan-2-ylmethyl 6-(4-ethoxyphenyl)picolinate]: the melting point is 76 to 80 °C. For the same compound, the IC50 in series [2] (setting [3]) came to 6 µM. Besides, the half-maximal inhibitory concentration (IC50) in series [2] (setting [4]) worked out at 25 µM. For the same compound, in the series with AML-12 cells, the “Tox AML-12 (LDH) seen from” value turned out to be 200 µM.
`COc1cc(C(=O)OC(C)C)nc(-c2ccc(OC(C)C)cc2)c1` [Example 201, Isopropyl 6-(4-isopropoxyphenyl)-4-methoxypicolinate]: the melting point lay in the range of 70 to 71 °C. In the series on AML-12 cells, the “Tox AML-12 (LDH) seen from” value worked out at 200 µM.
As for `CC#CCOC(=O)c1csc(-c2ccc(OCC)cc2)n1` [Example 209, But-2-yn-1-yl 2-(4-ethoxyphenyl)thiazole-4-carboxylate], the “Tox HepG2 (LDH) seen from” value in the series on HepG2 cells was found to be 200 µM. Moreover, the “Tox AML-12 (LDH) seen from” value in the series on AML-12 cells was 100 µM.
Take `C#C[C@H](C)OC(=O)c1csc(-c2ccc(OCC)cc2)n1` [Example 210, (S)-But-3-yn-2-yl 2-(4-ethoxyphenyl)thiazole-4-carboxylate]: in the series with AML-12 cells, the “Tox AML-12 (LDH) seen from” value turned out to be 200 µM.
For `C#C[C@@H](C)OC(=O)c1csc(-c2ccc(OCC)cc2)n1` [Example 211, (R)-But-3-yn-2-yl 2-(4-ethoxyphenyl)thiazole-4-carboxylate], the IC50 in series [2] (setting [3]) was determined as 4 µM; in series [2] (setting [4]), 20 µM. For the same compound, the “Tox AML-12 (LDH) seen from” value in the series on AML-12 cells came out at 100 µM.
`CCCCOC(=O)c1csc(-c2ccc(OCC)cc2)n1` [Example 212, Butyl 2-(4-ethoxyphenyl)thiazole-4-carboxylate]: the “Tox AML-12 (LDH) seen from” value in the series on AML-12 cells came to 200 µM.
On to `CCOc1ccc(-c2nc(C(=O)OCc3ccsc3)cs2)cc1` [Example 215, Thiophen-3-ylmethyl 2-(4-ethoxyphenyl)thiazole-4-carboxylate], for which the figures for the IC50 in series [2] (setting [3]) and in series [2] (setting [4]) were 6 µM and 15 µM, respectively.
With `CCOc1ccc(-c2nc(C(=O)OCc3ccoc3)cs2)cc1` [Example 216, Furan-3-ylmethyl 2-(4-ethoxyphenyl)thiazole-4-carboxylate], the half-maximal inhibitory concentration (IC50) is 10 µM in series [2] (setting [3]) and 25 µM in series [2] (setting [4]). Besides, the “Tox AML-12 (LDH) seen from” value with AML-12 cells stood at 50 µM.
